Experiments:
Type in all cases: biochemical
[1] = biological target: T1, cytochrome P450 1A1 (Homo sapiens, UniProt P04798); assay: fluorometric O-deethylation by recombinant CYP1A1 bactosomes; conditions: cited from earlier work
T1 sequence (P04798 1-512): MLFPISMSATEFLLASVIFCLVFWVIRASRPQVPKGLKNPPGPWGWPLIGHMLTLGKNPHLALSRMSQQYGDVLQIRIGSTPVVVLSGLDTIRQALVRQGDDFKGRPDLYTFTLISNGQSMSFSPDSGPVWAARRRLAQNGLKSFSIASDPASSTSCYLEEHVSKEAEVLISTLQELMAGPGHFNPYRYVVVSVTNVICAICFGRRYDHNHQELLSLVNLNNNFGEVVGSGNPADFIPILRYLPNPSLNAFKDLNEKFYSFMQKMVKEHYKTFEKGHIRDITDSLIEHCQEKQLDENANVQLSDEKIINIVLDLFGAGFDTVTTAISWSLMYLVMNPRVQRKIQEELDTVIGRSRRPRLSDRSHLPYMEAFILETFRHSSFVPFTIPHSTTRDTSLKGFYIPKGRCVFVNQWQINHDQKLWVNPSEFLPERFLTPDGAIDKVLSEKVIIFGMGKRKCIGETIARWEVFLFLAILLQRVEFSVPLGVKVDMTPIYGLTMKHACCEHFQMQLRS

[2] = biological target: T2, CYP1B1 (Homo sapiens, UniProt Q16678); assay: fluorometric 7-ethoxyresorufin O-deethylation with recombinant CYP1B1 bactosomes
T2 sequence (Q16678 1-543): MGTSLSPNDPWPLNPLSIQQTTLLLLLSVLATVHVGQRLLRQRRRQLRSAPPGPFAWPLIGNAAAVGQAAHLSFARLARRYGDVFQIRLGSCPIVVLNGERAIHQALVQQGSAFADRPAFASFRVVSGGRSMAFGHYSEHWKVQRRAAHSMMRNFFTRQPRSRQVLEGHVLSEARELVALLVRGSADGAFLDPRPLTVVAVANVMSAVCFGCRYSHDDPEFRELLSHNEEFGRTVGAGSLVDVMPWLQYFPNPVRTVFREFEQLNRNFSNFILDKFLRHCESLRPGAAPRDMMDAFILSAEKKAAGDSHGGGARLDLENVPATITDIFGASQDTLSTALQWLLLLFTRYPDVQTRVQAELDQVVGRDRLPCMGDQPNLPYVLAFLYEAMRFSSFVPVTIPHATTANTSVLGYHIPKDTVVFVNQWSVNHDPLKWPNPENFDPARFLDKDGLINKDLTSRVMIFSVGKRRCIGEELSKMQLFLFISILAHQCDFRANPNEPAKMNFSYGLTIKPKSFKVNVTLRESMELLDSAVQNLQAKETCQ

[3] = biological target: T1, cytochrome P450 1A1; assay: fluorometric CEC O-deethylation with recombinant CYP1A1 bactosomes

Structure (SMILES)	Km [1]	IC50 [2]	Ki [3]
CCOc1ccc2cc(C#N)c(=O)oc2c1 [CEC, 3-cyano-7-ethoxycoumarin]	0.5 µM		
c1ccc(CSSSCc2ccccc2)cc1 [DTS, dibenzyl trisulfide]		1.7 ± 0.3 µM	4.55 ± 0.37 µM

Reference: paper PMC8372549 (Toxicology and applied pharmacology, 2021)
